Data on one compound can be found in patent publication US20250041249A1, “METHOD OF TREATING LIVER STEATOSIS WITH BIOAVAILABLE FORMULATION OF OLEOYLETHANOLAMIDE” (THE REGENTS OF THE UNIVERSITY OF CALIFORNIA, priority 2021, published 2025).

Experiment [1] has as its system liver inflammation and fibrosis genes. As to the kind of experiment: Subchronic i.p. OEA in HFD-fed mice: liver gene transcription (real time PCR). In kind it is in vivo, mouse. The conditions noted are these: OEA 5 mg/kg i.p. once daily 6 weeks, versus vehicle controls. As for the experimental part:
18-week-old mice were randomized into two groups; one received standard chow (6.5% kcal fat, Envigo 2020X, Livermore, CA) and the other a high-fat diet (HFD, 60% kcal fat, D12492, Research Diets, New Brunswick, NJ). Both were available ad libitum for 11 weeks. Body weight and food intake were recorded three times per week. Animals from both groups were randomly assigned to three cohorts: a) free feeding, b) fasting (from 6:00 pm to 12:00 pm on the following day) and c) fasting/refeeding (2 hr access to food after fasting). Mice assigned to the fasting and fasting/refeeding groups were housed in bottom-wired cages to prevent coprophagia.
OEA was dissolved in a vehicle of 95% saline/5% Tween80 (v/v) shortly before experiments. It was administered by intraperitoneal (i.p.) injection at 5 mg/kg in a volume of 10 ml/kg.
We extracted total RNA from liver using TRIzol™ reagent (Thermo Fisher Scientific, Waltham, MS) and purified it with the PureLink™ RNA Mini Kit (Invitrogen, Waltham, MS) as directed by the supplier. Prior to purification, samples were passed through a gDNA Eliminator spin column (Qiagen, Germantown, CA). We quantified RNA using NanoDrop 2000/2000-c spectrophotometer (Thermo Fisher Scientific). cDNA was synthesized from […] of total RNA using the High-Capacity cDNA RT Kit with RNase inhibitor (Applied BioSystems, Foster City, CA) following manufacturer's instructions. First-strand cDNA was amplified using TaqMan™ Universal PCR Master Mixture (Thermo Fisher Scientific) Real-time PCR reactions were performed in 96-well plates using the CFX96™ Real-Time System (Bio-Rad, Hercules, CA). The thermal cycling conditions were as follows: initial denaturation set at 95° C. for 10 min, followed by 45 cycles, where each cycle was performed at 95° C. for 30 s followed by 55° C. for 60 s. ΔCt values were calculated using the geometric mean of three different housekeeping genes, and the relative fold changes over control groups (chow-free feed) were calculated by the 2-44Ct method. Real-time PCR primers and fluorogenic probes were purchased from Applied Biosystems (TaqMan (R) Gene Expression Assays, Foster City, CA). We used TaqMan gene expression assays for mouse Actb (Mm00607939_s1), Hprt (Mm00446968_m1), Gapdh (Mm99999915_g1), Tnfa (Mm00443258_m1), Il1b (Mm00434228_m1), Tgfb1 (Mm_01178820_m1), Ccl2 (Mm_00441242_m1) Hmox1 (Mm_00516005_m1), Col1a1 (Mm_00801666_g1), Nqo1 (Mm_01135606_m1), Nrf1 (Mm01135606_m1), Faah (Mm_00515684_m1), and NapepId (Mm_00724596_m1) (Applied Biosystems, Foster City, CA).
Diet-induced obesity is associated with the development of liver steatosis and fibrosis. We asked whether OEA supplementation might correct these alterations in HFD-fed mice, which are defective in endogenous OEA production. We exposed mice to HFD for 5 weeks, randomized them into two groups, and treated them either with OEA (5 mg/kg, once daily) or vehicle for 6 additional weeks of HFD exposure. As expected, OEA administration reduced body weight gain and lowered circulating total cholesterol and liver transaminase levels (Table 2, FIG. 5). These effects were accompanied by improvement in hepatic lipid profile (FIG. 3). […] Transcription of other relevant genes (Nrf1, Tnfa, Tgf1b, Nqo1) was not affected (FIG. 3h-j).
In general terms: In qPCR the cycle at which signal appears reflects the starting amount.

The target in experiment [2] is T1, PPAR-α (Homo sapiens, UniProt Q07869).
T1 sequence (Q07869 1-468): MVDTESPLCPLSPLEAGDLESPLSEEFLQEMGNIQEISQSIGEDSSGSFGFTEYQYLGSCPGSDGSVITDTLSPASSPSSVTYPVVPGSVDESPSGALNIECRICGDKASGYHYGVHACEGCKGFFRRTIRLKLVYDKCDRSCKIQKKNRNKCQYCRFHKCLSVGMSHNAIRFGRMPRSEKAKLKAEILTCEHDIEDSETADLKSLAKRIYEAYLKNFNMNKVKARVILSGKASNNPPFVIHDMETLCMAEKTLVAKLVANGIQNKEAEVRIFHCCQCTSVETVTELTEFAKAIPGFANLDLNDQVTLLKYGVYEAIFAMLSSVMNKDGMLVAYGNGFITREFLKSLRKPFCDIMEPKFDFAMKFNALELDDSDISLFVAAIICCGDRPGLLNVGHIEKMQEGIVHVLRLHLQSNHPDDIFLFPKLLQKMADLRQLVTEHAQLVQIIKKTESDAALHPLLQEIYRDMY
The conditions noted are these: PPAR-α agonist; read-out: median effective concentration, EC50; cited from earlier work.

The test system of the next experiment is liver of HFD-fed mice. Briefly: Subchronic i.p. OEA in HFD-fed mice: liver lipid accumulation (Oil Red O, BODIPY, triglyceride kit). It is filed as in vivo, mouse. Conditions: OEA 5 mg/kg i.p. once daily 6 weeks, versus vehicle controls. As for the experimental part: 18-week-old mice were randomized into two groups; one received standard chow (6.5% kcal fat, Envigo 2020X, Livermore, CA) and the other a high-fat diet (HFD, 60% kcal fat, D12492, Research Diets, New Brunswick, NJ). Both were available ad libitum for 11 weeks. Body weight and food intake were recorded three times per week. Animals from both groups were randomly assigned to three cohorts: a) free feeding, b) fasting (from 6:00 pm to 12:00 pm on the following day) and c) fasting/refeeding (2 hr access to food after fasting). Mice assigned to the fasting and fasting/refeeding groups were housed in bottom-wired cages to prevent coprophagia. OEA was dissolved in a vehicle of 95% saline/5% Tween80 (v/v) shortly before experiments. It was administered by intraperitoneal (i.p.) injection at 5 mg/kg in a volume of 10 ml/kg. Liver triglycerides were quantified using a colorimetric assay kit (Cayman Chemicals). Briefly, ˜30 mg of right liver lobe were mixed with 0.2 mL of assay buffer and processed following manufacturer's instructions. Oil Red O Staining: We embedded liver samples in a mold, cut them into 7-μm thick sections with a cryostat and fixed them with 4% paraformaldehyde (PFA) for 15 min. After fixation, we immersed the sections in phosphate-buffered saline (PBS) for 2 min, placed them in isopropanol (60%) for 2 min, and incubated them with Oil Red O (60% in isopropanol) for 30 min. […]

The subject of another experiment is HFD-fed mice. Briefly: Subchronic i.p. OEA in HFD-fed mice: body weight gain and blood chemistry. In kind it is in vivo, mouse. The conditions noted are these: OEA 5 mg/kg i.p. once daily for 6 weeks, mean ± S.E.M. Here is the method: 18-week-old mice were randomized into two groups; one received standard chow (6.5% kcal fat, Envigo 2020X, Livermore, CA) and the other a high-fat diet (HFD, 60% kcal fat, D12492, Research Diets, New Brunswick, NJ). Both were available ad libitum for 11 weeks. Body weight and food intake were recorded three times per week. Animals from both groups were randomly assigned to three cohorts: a) free feeding, b) fasting (from 6:00 pm to 12:00 pm on the following day) and c) fasting/refeeding (2 hr access to food after fasting). Mice assigned to the fasting and fasting/refeeding groups were housed in bottom-wired cages to prevent coprophagia. OEA was dissolved in a vehicle of 95% saline/5% Tween80 (v/v) shortly before experiments. It was administered by intraperitoneal (i.p.) injection at 5 mg/kg in a volume of 10 ml/kg. A comprehensive blood chemistry panel was performed at Antech Diagnostics (Irvine, CA). Diet-induced obesity is associated with the development of liver steatosis and fibrosis. We asked whether OEA supplementation might correct these alterations in HFD-fed mice, which are defective in endogenous OEA production. We exposed mice to HFD for 5 weeks, randomized them into two groups, and treated them either with OEA (5 mg/kg, once daily) or vehicle for 6 additional weeks of HFD exposure. As expected, OEA administration reduced body weight gain and lowered circulating total cholesterol and liver transaminase levels (Table 2, FIG. 5). These effects were accompanied by improvement in hepatic lipid profile (FIG. 3). […] Transcription of other relevant genes (Nrf1, Tnfa, Tgf1b, Nqo1) was not affected (FIG. 3h-j).

In experiment [3] the target is T1, PPAR-α. Conditions: read-out: affinity constant, KD; cited from earlier work.

By Kd is commonly meant a measure of binding affinity in units of concentration.

Take `CCCCCCCC/C=C\CCCCCCCC(=O)NCCO` [OEA, oleoylethanolamide]: in experiment [1], the “liver transcription of C-C Motif Chemokine Ligand 2 (Ccl2)” value is “attenuated”, the “liver transcription of Nqo1” value was “not affected”, the “liver transcription of Nrf1” value is reported as “not affected” and the “liver transcription of Tgf1b” value is recorded as “not affected”. In addition, in experiment [1], the “liver transcription of Tnfa” value is given as “not affected”, the “liver transcription of collagen type I a1 (Col1a1)” value is “attenuated”, the “liver transcription of heme oxygenase 1 (Hmox1)” value is recorded as “enhanced” and the “liver transcription of interleukin 1B (1/1b)” value is listed as “attenuated”. Besides, the EC50 on PPAR-α [2] was about 120 nM. For the same compound, in the experiment with liver of HFD-fed mice, the “liver lipid content (Oil Red O and BODIPY staining of liver sections)” value was “reduced”; the liver triglyceride content result is “lower”. For the same compound, in the experiment with HFD-fed mice, the “A Body weight” value is given as 2.27 ± 0.5 g, the “ALT (SPGT)” value is 45.4 ± 6.9 IU/L, the “AST (SGOT)” value is 86.1 ± 9.9 IU/L and the Cholesterol is listed as 173.6 ± 7.6 mg/dL. In addition, in the experiment on HFD-fed mice, the Glucose is 250.5 ± 19.1 mg/dL and the Triglyceride is on record as 81.0 ± 4.9 mg/dL. Moreover, at PPAR-α [3], the Kd is about 40 nM.
